Experimental data from paper PMC12005349 (Journal of Cellular and Molecular Medicine, 2025).
No end group written: not given here.

Key:
TGFβRI = tested on: TGFβRI; design: method as in 2 sources, ref 51 = [51]; 51 SB431542 | Activin/BMP/TGF‐Beta Pathway Inhibitor | […] Technologies [Internet] , https://www.stemcell.com/products/sb431542.html . ||| ref 52 = [52]; 52 selleckchem.com [Internet] , “SD‐208 | 99.67%(HPLC) | TGF‐Beta/Smad Inhibitor” , https://www.selleckchem.com/products/sd‐208.html .; settings: cited from earlier work
HEK293T cells = assay: Cytotoxicity by flow cytometry (FITC Annexin V / propidium iodide) on HEK293T cells; type: cell-based, human; settings: for Viability (%): 20 µM
Protocol: HEK293T cells were seeded in 12‐well plates coated with poly‐d‐lysine (PDL) in a DMEM 10% FBS medium. After 24 h of incubation, the culture medium was removed and the cells were washed three times with PBS. Next, either empty fresh culture medium, medium with the addition of a commercial small molecule (SD‐208 or SB‐525334), or one of the novel peptides TGF‐β inhibitors was added. After 24 h of incubation, cells were removed from the wells and counted using a haemocytometer. Cells were prepared for flow cytometry using the Pharmingen FITC Annexin V Apoptosis Detection Kit I (BD Biosciences, cat. no 556547). 100,000 cells from each sample were suspended in a binding buffer and then stained with FITC and/or propidium iodide. After a 15‐min incubation, the fluorescence profiles of each cell population were measured using a flow cytometer (CytoFLEX, Beckman Coulter), identifying the proportion of cells in apoptosis and necrosis. The data were visualised and quantified by constructing a dot plot using the CytExpert (Beckman Coulter) software.

[1] = target: T1, TGFβRI/TGFβRII receptor complex (Homo sapiens, UniProt P36897+P37173); assay: Dual-Luciferase reporter (CAGA12-Luc/TK Renilla) luminescence assay of TGF-β signalling on HEK293T cells; type: cell-based; settings: PI 500 nM to 50 μM, 60 min, then TGF-β 6 h, 4-parameter logistic regression, 4 biological replicates
T1 construct: host or cells: HEK293T CAGA12-Luc/TK Renilla reporter cells
Excerpt: The cell line stably expresses CAGA12‐Luc, a Smad3/Smad4‐dependent reporter containing 12 copies of CAGAC motifs derived from the PAI‐1 promoter. This reporter protein is expressed and secreted by HEK293T cells upon TGFβRI/TGFβRII activation. The cell line also contains a Renilla reporter driven by a thymidine kinase (TK) promoter that acts as an internal control.
The presence of the described reporter activity allows HEK293T cells to be used to measure TGF‐β signalling activity using luciferase assays. The Promega Dual‐Luciferase Reporter Assay System (Promega, cat. no E1910) kit was used for assays on the HEK293T cell line. The following procedure was carried out according to manufacturer protocols. Cells were seeded in 96‐well plates coated with poly‐d‐lysine (PDL), in a DMEM 10% FBS medium. All experiments were carried out with the use of 4 biological replicates per group. After 24 h of incubation, the culture medium was removed and the cells were washed three times with PBS. […] After incubation, an additional volume of fresh blank medium or medium supplemented with TGF‐β was added to the wells. The cells were incubated again for 6 h, after which the contents of the wells were removed and the wells rinsed again with PBS. The cells were stored at −80°C until measurement.
Prior to measurement, cells were lysed using a passive lysis buffer. The lysate from each well was added to corresponding wells on a new 96‐well plate containing a reagent that induces luminescence of the first reporter protein, which is expressed by the HEK293T cells upon TGF‐β receptor activation. Luminescence was read using a plate reader with a luminescence measurement function (Victor EX, Perkin Elmer), following the kit manufacturer's instructions. After the measurement, a reagent that activates the second reporter protein (constitutively expressed by HEK293T cells, serves as an internal control) was added to each well, and the luminescence reading was repeated. All luciferase‐based assays were conducted using 4 biological replicates (cell cultures seeded and cultured independently) for each inhibitor and concentration tested.
IC50 values were calculated using 4‐parameter logistic regression in the Prism 9.0 (GraphPad) software. […] All measured results were considered significant at α level = 0.05. The α level is the threshold value against which p‐values are measured. p < 0.05 was considered to indicate a statistically significant difference.

T1 sequence (P36897 34-503): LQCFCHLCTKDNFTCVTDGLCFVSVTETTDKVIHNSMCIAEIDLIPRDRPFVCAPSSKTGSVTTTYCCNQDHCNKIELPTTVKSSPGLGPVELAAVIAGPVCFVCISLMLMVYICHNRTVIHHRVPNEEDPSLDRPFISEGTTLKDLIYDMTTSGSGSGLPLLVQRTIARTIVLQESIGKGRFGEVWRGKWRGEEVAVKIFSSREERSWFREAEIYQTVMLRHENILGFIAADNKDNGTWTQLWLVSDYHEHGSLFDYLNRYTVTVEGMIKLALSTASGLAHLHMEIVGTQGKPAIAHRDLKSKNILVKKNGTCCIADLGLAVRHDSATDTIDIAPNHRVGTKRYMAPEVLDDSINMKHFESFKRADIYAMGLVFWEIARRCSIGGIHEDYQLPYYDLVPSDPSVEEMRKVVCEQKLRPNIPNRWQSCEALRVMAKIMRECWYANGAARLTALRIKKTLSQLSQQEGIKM
T1 sequence (P37173 23-567): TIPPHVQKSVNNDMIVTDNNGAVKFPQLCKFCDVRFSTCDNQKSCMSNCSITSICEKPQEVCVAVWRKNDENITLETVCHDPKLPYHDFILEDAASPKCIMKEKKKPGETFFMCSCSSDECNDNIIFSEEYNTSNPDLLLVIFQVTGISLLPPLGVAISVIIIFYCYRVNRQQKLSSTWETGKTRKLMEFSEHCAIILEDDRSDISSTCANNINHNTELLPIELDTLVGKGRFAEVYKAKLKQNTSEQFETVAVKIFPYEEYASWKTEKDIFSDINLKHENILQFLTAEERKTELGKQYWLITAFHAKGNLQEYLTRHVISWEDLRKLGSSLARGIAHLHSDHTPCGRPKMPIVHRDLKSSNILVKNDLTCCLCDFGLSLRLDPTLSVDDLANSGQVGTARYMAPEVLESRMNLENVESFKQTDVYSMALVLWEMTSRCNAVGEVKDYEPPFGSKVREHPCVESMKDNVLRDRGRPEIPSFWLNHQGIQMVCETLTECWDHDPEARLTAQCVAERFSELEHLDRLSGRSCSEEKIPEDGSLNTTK

In the case of `NC(=O)c1ccc(-c2nc(-c3ccc4c(c3)OCO4)c(-c3ccccn3)[nH]2)cc1` [SB-431542], the IC50 (TGFβRI) is given as 94 nM.
For `Cc1cccc(-c2[nH]c(C(C)(C)C)nc2-c2ccc3nccnc3c2)n1` [SB-525334, 6‐[2‐tert‐Butyl‐5‐(6‐methyl‐pyridin‐2‐yl)‐1H‐imidazol‐4‐yl]‐quinoxaline], the “Viability (%)” value (HEK293T cells) was 86.9%.
In the case of `Fc1ccc(Cl)cc1-c1nc(Nc2ccncc2)c2nccnc2n1` [SD-208], the “Viability (%)” value (HEK293T cells) is given as 87.1% and the IC50 (TGFβRI) is given as […].
With AAYCFRNVQ [1_4] the IC50 [1] was 57.2 µM.
With ACPYLWSSD [2_4] the IC50 [1] was 27.7 µM.
Compound AGACPYLWS [2_2] has an IC50 [1] of 29.3 µM.
In the case of ALDAAYCFR [1_1], the IC50 [1] is reported as 43.3 µM and the “Viability (%)” value (HEK293T cells) is reported as 88.7%.
In the case of AYCFRNVQD [1_5], the IC50 [1] is reported as 24.2 µM.
CPYLWSSDT [2_5] showed an IC50 [1] of 21.9 µM.
Work on DAAYCFRNV [1_3] yielded an IC50 [1] of 42.4 µM.
With GACPYLWSS [2_3] the IC50 [1] was 23.6 µM and the “Viability (%)” value (HEK293T cells) was 86.4%.
With LDAAYCFRN [1_2] the IC50 [1] was 44 µM.
With LWSSDTQHS [2_8] the IC50 [1] was 27.4 µM.
PYLWSSDTQ [2_6] gave an IC50 [1] of 25.7 µM.
With TSLDASIIWAMMQN [P144] the “Viability (%)” value (HEK293T cells) was 82.2% and the “Effect on HEK293T cell viability compared to untreated cells” value (HEK293T cells; 20 μM, 24 h, flow cytometry) was “none of the tested inhibitors reduced cell viability to a statistically significant degree”.
With WSSDTQHSR [2_9] the IC50 [1] was 25 µM.
With YLWSSDTQH [2_7] the IC50 [1] was 20.8 µM.
